Laboratory results as given in patent US7064120B2, “Tricyclic pyridyl carboxamides and derivatives thereof tocolytic oxytocin receptor antagonists” (Wyeth, priority 2001, dated 2006).

target: T1, human vasopressin V1a receptor subtype (Homo sapiens, UniProt P37288); experiment: Vasopressin binding in CHO cell membranes expressing human vasopressin V1a subtype receptors ([3H]Manning ligand radioligand binding); conditions: 100 nM
T1 construct: host or cells: CHO cells, stably transfected (pZeoSV vector for the Thibonnier line)
Experimental: Vasopressin Binding in Chinese Hamster Ovary Cell Membranes Expressing Human Vasopressin V1a Subtype Receptors
The trypsin is removed by aspiration and the cells dislodged by tapping. Cell Culture medium (e.g. 30 mL for 1:30 split) is immediately added and mixed well to inactivate trypsin. 1 mL of detached cells is added to new culture flasks containing fresh cell culture medium (e.g., into 25 mL per T-150 flask), and mixed gently. The cells are incubated at 37° C. in 5% CO2. The medium is changed at 3 to 4 days interval (or as appropriate). […] All steps are done under sterile conditions.
The cells are washed twice gently with Hank's Balanced Salt solution (e.g,. use 10 mL per T-150 flask). […] The contents are transferred to centrifuge tubes (50 mL) kept in an ice bath. All subsequent steps are done at 4° C. The tubes are centrifuged at 300×g for 15 min (1380 rpm on SORVAL, Model RT6000D, using the rotor for 50 mL tubes). The supernatant is discarded and the cells suspended in homogenizing buffer(10 mM Tris-HCl containing 0.25 M sucrose and 1 mM EDTA, pH 7.4) ensuring that the volume of the buffer is about ten times the volume of the cell pellet. The cells are pooled into a centrifuge tube (50 mL) and homogenized with Polytron at setting 6 for 10 sec. The homogenate is transferred into a Potter-Elvjehm homogenizer and homogenized with 3 strokes. The homogenate is centrifuged at 1500×g for 10 min at 4° C. (3100 rpm using SORVAL, model RT6000D, using the rotor for 50 mL tubes). The pellet is discarded. The supernatant is centrifuged at 100,000×g for 60 min. at 4° C. (Beckman L8-80M ultracentrifuge; spin at 37,500 rpm with rotor type 70 Ti for 50 mL tubes; 38,000 rpm with type 80Ti for 15 mL tubes; or 35,800 rpm with rotor type 45Ti). The supernantant is discarded and the pellet suspended in 3 to 4 mL of Tris buffer (50 mM TRIS-HCl, pH 7.4). The protein content is estimated by the Bradford or Lowry method. The volume of the membrane suspension is adjusted with the membrane buffer (50 mM Tris-HCl containing 0.1% BSA and 0.1 mM PMSF) to give 3.0 mg/mL (or as appropriate) of protein. The membranes are aliquoted and stored at −70° C.
In wells of a 96-well format microtiter plate, is added 90, 110 or 130 μL (to make up a final volume of 200 μL) of assay buffer containing 50 mM of Tris-HCl (pH 7.4), BSA (heat inactivated, protease-free), […], 1 mg % aprotinin, 1 mg % leupeptin, 2 mg % 1,10-phenanthroline, 10 mg % trypsin inhibitor, and 0.1 mM PMSF. The inhibitors are added on the day of the experiment. The components are mixed at room temperature, and then kept in ice bath following adjustment of the pH to 7.4. […] 20 μL of 50% DMSO is added for Manning and other peptide ligands and the assay buffer volume is adjusted accordingly. To each well is added 50 μL of frozen membrane suspension thawed immediately prior to use and diluted in the assay buffer to the required concentration (equivalent to 25 to 50 μg of protein/well as needed). 20 μL of 8 nM [^3H]Manning ligand in the assay buffer, prepared just before use, is added, and incubated at room temperature for 60 min. shaking the plate on a mechanical shaker for the first 15 min. The incubation is stopped by rapid filtration of the plate contents followed by wash with ice-cold buffer (50 mM Tris-HCl, pH 7.4) using a cell harvester (Tomtek and Printed filtermat-B filter paper). The filter paper is thoroughly dried (7–12 min. in a microwave oven) and impregnated with MeltiLex B/H melt-on scintillation wax sheets and the radioactivity counted in a betaplate scintillation counter.
Binding data is either reported as percent inhibition at a certain concentration or if an IC50 was calculated, as a nanomolar concentration.

T1 sequence (P37288 whole entry): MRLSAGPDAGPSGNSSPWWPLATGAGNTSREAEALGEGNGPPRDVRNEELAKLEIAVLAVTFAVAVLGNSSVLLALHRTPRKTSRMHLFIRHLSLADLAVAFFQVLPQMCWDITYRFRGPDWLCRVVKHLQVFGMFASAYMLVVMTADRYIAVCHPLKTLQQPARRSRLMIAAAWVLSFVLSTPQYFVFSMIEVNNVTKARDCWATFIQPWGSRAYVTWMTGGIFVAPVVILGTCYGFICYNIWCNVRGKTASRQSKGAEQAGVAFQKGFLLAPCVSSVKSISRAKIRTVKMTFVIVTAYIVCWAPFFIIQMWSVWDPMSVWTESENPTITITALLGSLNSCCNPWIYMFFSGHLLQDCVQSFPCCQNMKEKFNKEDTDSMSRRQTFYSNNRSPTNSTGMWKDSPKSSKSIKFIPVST

Compared with `COc1cc(C(=O)N2Cc3ccc(C(=O)N(C)Cc4cccnc4)n3Cc3ccccc32)ccc1-c1ccccc1C` [Example 106, 10-[(2-Methoxy-2′-methyl-[1,1′-biphenyl]-4-yl)carbonyl]-N-methyl-N-(3-pyridinylmethyl)-10,11-dihydro-5H-pyrrolo[2,1-c][1,4]benzodiazepine-3-carboxamide], `COc1cc(C(=O)N2Cc3ccc(C(=O)N(C)Cc4cccnc4)n3Cc3ccccc32)ccc1-c1cccc2ccccc12` [Example 109, 10-[3-Methoxy-4-(naphthalen-1-yl)benzoyl]-N-methyl-N-(3-pyridinylmethyl)-10,11-dihydro-5H-pyrrolo[2,1-c][1,4]benzodiazepine-3-carboxamide] is lower in inhibition at 0.1 µM: 68% for the first, 7% for the second.

First: COc1cc(-c2ccccc2C)c(Cl)cc1C(=O)N1Cc2ccc(C(=O)N(C)Cc3cccnc3)n2Cc2ccccc21 [Example 107, 10-[(6-Chloro-3-methoxy-2′-methyl-[1,1′-biphenyl]-4-yl)carbonyl]-N-methyl-N-(3-pyridinylmethyl)-10,11-dihydro-5H-pyrrolo[2,1-c][1,4]benzodiazepine-3-carboxamide]
Second: COc1cccc(-c2cc(OC)c(C(=O)N3Cc4ccc(C(=O)N(C)Cc5cccnc5)n4Cc4ccccc43)cc2Cl)c1 [Example 108, 10-[(6-Chloro-3,3′-dimethoxy-[1,1′-biphenyl]-4-yl)carbonyl]-N-methyl-N-(3-pyridinylmethyl)-10,11-dihydro-5H-pyrrolo[2,1-c][1,4]benzodiazepine-3-carboxamide]
The inhibition at 0.1 µM of the first is higher: 12% for the first, 4% for the second.

Going from `CN(Cc1cccnc1)C(=O)c1ccc2n1Cc1ccccc1N(C(=O)c1ccc(-c3cccc4ccccc34)cc1Cl)C2` [Example 111, 10-[2-Chloro-4-(naphthalen-1-yl)benzoyl]-N-methyl-N-(3-pyridinylmethyl)-10,11-dihydro-5H-pyrrolo[2,1-c][1,4]benzodiazepine-3-carboxamide] to `O=C(c1ccc2n1Cc1ccccc1N(C(=O)c1ccc(-c3cccc4ccccc34)cc1Cl)C2)N1CCN(c2ccncc2)CC1` [Example 124, {10-[2-Chloro-4-(naphthalen-1-yl)benzoyl]-10,11-dihydro-5H-pyrrolo[2,1-c][1,4]benzodiazepin-3-yl}[4-(4-pyridinyl)-1-piperazinyl]methanone], the inhibition at 0.1 µM rises from 4% to 11%.

First: Cc1ccccc1-c1ccc(C(=O)N2Cc3ccc(C(=O)N4CCN(c5ccncc5)CC4)n3Cc3ccccc32)cc1C [Example 114, {10-[(2,2′-Dimethyl-[1,1′-biphenyl]-4-yl)carbonyl]-10,11-dihydro-5H-pyrrolo[2,1-c][1,4]benzodiazepin-3-yl}[4-(4-pyridinyl)-1-piperazinyl]methanone]
Second: Cc1ccccc1-c1ccc(C(=O)N2Cc3ccc(C(=O)N4CCN(c5ccncc5)CC4)n3Cc3ccccc32)cc1 [Example 117, {10-[(2′-Methyl-[1,1′-biphenyl]-4-yl)carbonyl]-10,11-dihydro-5H-pyrrolo[2,1-c][1,4]benzodiazepin-3-yl}[4-(4-pyridinyl)-1-piperazinyl]methanone]
The inhibition at 0.1 µM of the first is higher: 56% for the first, 1% for the second.

First: COc1cccc(-c2ccc(C(=O)N3Cc4ccc(C(=O)N5CCN(c6ccncc6)CC5)n4Cc4ccccc43)cc2C)c1 [Example 115, {10-[(3′-Methoxy-2-methyl-[1,1′-biphenyl]-4-yl)carbonyl]-10,11-dihydro-5H-pyrrolo[2,1-c][1,4]benzodiazepin-3-yl}[4-(4-pyridinyl)-1-piperazinyl]methanone]
Second: COc1cccc(-c2ccc(C(=O)N3Cc4ccc(C(=O)N5CCN(c6ccncc6)CC5)n4Cc4ccccc43)cc2OC)c1 [Example 123, {10-[(2,3′-Dimethoxy-[1,1′-biphenyl]-4-yl)carbonyl]-10,11-dihydro-5H-pyrrolo[2,1-c][1,4]benzodiazepin-3-yl}[4-(4-pyridinyl)-1-piperazinyl]methanone]
The inhibition at 0.1 µM of the first is lower: 22% for the first, 71% for the second.

Compared with `COc1ccccc1-c1ccc(C(=O)N2Cc3ccc(C(=O)N4CCN(c5ccncc5)CC4)n3Cc3ccccc32)cc1` [Example 116, {10-[(2′-Methoxy-[1,1′-biphenyl]-4-yl)carbonyl]-10,11-dihydro-5H-pyrrolo[2,1-c][1,4]benzodiazepin-3-yl}[4-(4-pyridinyl)-1-piperazinyl]methanone], `COc1ccccc1-c1ccc(C(=O)N2Cc3ccc(C(=O)N4CCN(c5ccncc5)CC4)n3Cc3ccccc32)cc1OC` [Example 122, {10-[(2,2′-Dimethoxy-[1,1′-biphenyl]-4-yl)carbonyl]-10,11-dihydro-5H-pyrrolo[2,1-c][1,4]benzodiazepin-3-yl}[4-(4-pyridinyl)-1-piperazinyl]methanone] is lower in inhibition at 0.1 µM: 77% for the first, 9% for the second.

Going from `COc1cc(-c2ccccc2C)c(Cl)cc1C(=O)N1Cc2ccc(C(=O)N3CCN(c4ccncc4)CC3)n2Cc2ccccc21` [Example 119, {10-[(6-Chloro-3-methoxy-2′-methyl-[1,1′-biphenyl]-4-yl)carbonyl]-10,11-dihydro-5H-pyrrolo[2,1-c][1,4]benzodiazepin-3-yl}[4-(4-pyridinyl)-1-piperazinyl]methanone] to `COc1cccc(-c2cc(OC)c(C(=O)N3Cc4ccc(C(=O)N5CCN(c6ccncc6)CC5)n4Cc4ccccc43)cc2Cl)c1` [Example 120, {10-[(6-Chloro-3,3′-dimethoxy-[1,1′-biphenyl]-4-yl)carbonyl]-10,11-dihydro-5H-pyrrolo[2,1-c][1,4]benzodiazepin-3-yl}[4-(4-pyridinyl)-1-piperazinyl]methanone], the inhibition at 0.1 µM falls from 9% to 6%.

Compared with `COc1cc(C(=O)N2Cc3ccc(C(=O)N4CCN(c5ccncc5)CC4)n3Cc3ccccc32)ccc1-c1cccc2ccccc12` [Example 121, {10-[3-Methoxy-4-(naphthalen-1-yl)benzoyl]-10,11-dihydro-5H-pyrrolo[2,1-c][1,4]benzodiazepin-3-yl}[4-(4-pyridinyl)-1-piperazinyl]methanone], `COc1ccccc1-c1ccc(C(=O)N2Cc3ccc(C(=O)N(C)CCc4ccncc4)n3Cc3ccccc32)cc1C` [Example 126, 10-[(2′-Methoxy-2-methyl-[1,1′-biphenyl]-4-yl)carbonyl]-N-methyl-N-[2-(4-pyridinyl)ethyl]-10,11-dihydro-5H-pyrrolo[2,1-c][1,4]benzodiazepine-3-carboxamide] is higher in inhibition at 0.1 µM: 17% for the first, 38% for the second.

First: COc1ccccc1-c1ccc(C(=O)N2Cc3ccc(C(=O)N(C)CCc4ccncc4)n3Cc3ccccc32)cc1OC [Example 125, 10-[(2,2′-Dimethoxy-[1,1′-biphenyl]-4-yl)carbonyl]-N-methyl-N-[2-(4-pyridinyl)ethyl]-10,11-dihydro-5H-pyrrolo[2,1-c][1,4]benzodiazepine-3-carboxamide]
Second: Cc1ccccc1-c1ccc(C(=O)N2Cc3ccc(C(=O)N(C)CCc4ccncc4)n3Cc3ccccc32)cc1C [Example 127, 10-[(2,2′-Dimethyl-[1,1′-biphenyl]-4-yl)carbonyl]-N-methyl-N-[2-(4-pyridinyl)ethyl]-10,11-dihydro-5H-pyrrolo[2,1-c][1,4]benzodiazepine-3-carboxamide]
The inhibition at 0.1 µM of the first is lower: 17% for the first, 66% for the second.

Compared with `COc1cccc(-c2ccc(C(=O)N3Cc4ccc(C(=O)N(C)Cc5cccnc5)n4Cc4ccccc43)cc2OC)c1` [Example 110], `COc1cc(C(=O)N2Cc3ccc(C(=O)N4CCN(c5ccncc5)CC4)n3Cc3ccccc32)ccc1-c1ccccc1C` [Example 118] is higher in “V1a % inhibition @ 100 nM” value: 49% for the first, 62% for the second.
